{"source": "ChEMBL document CHEMBL5150077", "about": "“Identification of TUL01101: A Novel Potent and Selective JAK1 Inhibitor for the Treatment of Rheumatoid Arthritis” (J Med Chem, 2022)", "key": {"[1]": {"target": "Casein kinase I (Homo sapiens) (UniProt Q9HCP0+P78368+P48730+P49674+P48729)", "test": "Inhibition of CK1 (unknown origin) assessed as residual activity at 30 uM relative to control", "format": "protein assay"}, "[2]": {"target": "Serine/threonine-protein kinase B-raf (Homo sapiens) (UniProt P15056)", "sequence (P15056 whole entry)": "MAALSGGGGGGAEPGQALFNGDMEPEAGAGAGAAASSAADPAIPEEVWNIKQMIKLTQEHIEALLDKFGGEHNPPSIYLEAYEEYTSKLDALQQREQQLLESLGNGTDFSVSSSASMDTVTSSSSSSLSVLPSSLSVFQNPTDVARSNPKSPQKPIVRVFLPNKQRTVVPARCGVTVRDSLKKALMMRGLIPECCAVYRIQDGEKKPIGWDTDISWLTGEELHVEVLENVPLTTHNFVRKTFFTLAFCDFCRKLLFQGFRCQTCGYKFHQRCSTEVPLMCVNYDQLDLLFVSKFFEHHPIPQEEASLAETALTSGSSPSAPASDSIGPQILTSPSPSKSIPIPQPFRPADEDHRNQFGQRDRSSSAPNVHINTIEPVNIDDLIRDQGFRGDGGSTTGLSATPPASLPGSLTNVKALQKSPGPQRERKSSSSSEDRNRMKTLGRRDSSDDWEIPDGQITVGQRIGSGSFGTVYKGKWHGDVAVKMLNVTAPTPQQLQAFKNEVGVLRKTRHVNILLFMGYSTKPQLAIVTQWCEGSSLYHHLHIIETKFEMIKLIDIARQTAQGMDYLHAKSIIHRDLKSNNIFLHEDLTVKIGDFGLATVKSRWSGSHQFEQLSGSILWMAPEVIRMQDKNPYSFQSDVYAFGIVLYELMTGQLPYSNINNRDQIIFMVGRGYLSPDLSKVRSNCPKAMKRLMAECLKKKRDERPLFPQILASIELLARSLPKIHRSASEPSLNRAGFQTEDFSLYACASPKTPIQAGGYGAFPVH", "test": "Inhibition of human B-raf assessed as residual activity at 30 uM relative to control"}, "[3]": {"target": "Insulin-like growth factor 1 receptor (Homo sapiens) (UniProt P08069)", "sequence (P08069 31-736 limits assumed)": "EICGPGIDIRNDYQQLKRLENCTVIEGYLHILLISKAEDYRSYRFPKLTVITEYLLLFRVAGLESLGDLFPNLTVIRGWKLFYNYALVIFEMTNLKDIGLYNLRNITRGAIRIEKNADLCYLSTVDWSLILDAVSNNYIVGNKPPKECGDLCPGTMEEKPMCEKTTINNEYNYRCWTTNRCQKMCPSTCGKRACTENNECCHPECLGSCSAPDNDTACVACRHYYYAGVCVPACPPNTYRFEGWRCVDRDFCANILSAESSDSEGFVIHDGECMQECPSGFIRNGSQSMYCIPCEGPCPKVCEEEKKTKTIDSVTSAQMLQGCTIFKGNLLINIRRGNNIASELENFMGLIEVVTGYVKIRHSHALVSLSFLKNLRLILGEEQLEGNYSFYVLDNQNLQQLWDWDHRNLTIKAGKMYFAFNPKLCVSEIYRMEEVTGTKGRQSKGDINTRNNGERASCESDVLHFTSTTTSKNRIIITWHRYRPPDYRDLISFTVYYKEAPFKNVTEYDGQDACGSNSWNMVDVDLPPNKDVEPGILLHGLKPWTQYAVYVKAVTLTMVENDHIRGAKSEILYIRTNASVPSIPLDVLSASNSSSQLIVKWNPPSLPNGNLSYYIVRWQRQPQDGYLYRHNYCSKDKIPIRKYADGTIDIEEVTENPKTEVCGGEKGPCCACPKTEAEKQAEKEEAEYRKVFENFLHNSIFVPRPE", "sequence (P08069 741-1367 limits assumed)": "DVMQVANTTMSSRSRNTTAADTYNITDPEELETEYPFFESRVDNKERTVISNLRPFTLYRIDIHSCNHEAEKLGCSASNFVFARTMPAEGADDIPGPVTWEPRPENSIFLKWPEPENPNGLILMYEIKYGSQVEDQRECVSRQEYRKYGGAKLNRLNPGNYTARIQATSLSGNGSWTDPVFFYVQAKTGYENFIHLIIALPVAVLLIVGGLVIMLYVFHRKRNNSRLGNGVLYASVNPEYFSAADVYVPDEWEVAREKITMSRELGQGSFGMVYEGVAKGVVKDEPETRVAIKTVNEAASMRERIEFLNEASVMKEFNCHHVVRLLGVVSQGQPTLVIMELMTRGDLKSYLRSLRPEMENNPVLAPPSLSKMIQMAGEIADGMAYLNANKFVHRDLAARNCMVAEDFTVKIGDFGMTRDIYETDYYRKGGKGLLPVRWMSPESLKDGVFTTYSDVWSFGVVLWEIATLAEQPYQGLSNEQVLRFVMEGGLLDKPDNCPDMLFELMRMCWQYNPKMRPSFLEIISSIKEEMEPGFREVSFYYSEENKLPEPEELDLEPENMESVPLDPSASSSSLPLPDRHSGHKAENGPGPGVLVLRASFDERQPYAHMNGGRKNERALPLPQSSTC", "test": "Inhibition of human IGF1R assessed as residual activity at 30 uM relative to control"}, "in vivo [4]": {"test": "in vivo", "conditions": "beagle, dog, po, 5 mg/kg"}, "[5]": {"target": "CDK2/Cyclin A2 (Homo sapiens) (UniProt P24941+P20248)", "test": "Inhibition of human CDK2/Cyclin A assessed as residual activity at 30 uM relative to control", "format": "protein-complex assay"}, "[6]": {"target": "Platelet-derived growth factor receptor beta (Homo sapiens) (UniProt P09619)", "test": "Inhibition of human PDGFRbeta assessed as residual activity at 30 uM relative to control"}, "[7]": {"target": "High affinity nerve growth factor receptor (Homo sapiens) (UniProt P04629)", "test": "Inhibition of human TRK assessed as residual activity at 30 uM relative to control"}, "[8]": {"target": "RAC-alpha serine/threonine-protein kinase (Homo sapiens) (UniProt P31749)", "sequence (P31749 whole entry)": "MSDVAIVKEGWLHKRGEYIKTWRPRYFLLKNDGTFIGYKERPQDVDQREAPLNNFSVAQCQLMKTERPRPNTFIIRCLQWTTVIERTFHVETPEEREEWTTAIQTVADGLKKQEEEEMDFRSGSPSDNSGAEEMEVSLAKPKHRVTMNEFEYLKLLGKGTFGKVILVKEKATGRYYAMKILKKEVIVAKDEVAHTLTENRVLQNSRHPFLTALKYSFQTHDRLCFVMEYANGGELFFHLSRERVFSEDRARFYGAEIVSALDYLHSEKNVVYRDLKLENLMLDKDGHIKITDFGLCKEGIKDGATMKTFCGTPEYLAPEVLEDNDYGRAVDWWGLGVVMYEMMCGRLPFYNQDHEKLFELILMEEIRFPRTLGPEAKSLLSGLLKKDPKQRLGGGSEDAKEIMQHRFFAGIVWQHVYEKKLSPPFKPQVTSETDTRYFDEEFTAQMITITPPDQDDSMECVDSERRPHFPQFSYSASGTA", "test": "Inhibition of human PKBalpha assessed as residual activity at 30 uM relative to control"}, "[9]": {"target": "Proto-oncogene tyrosine-protein kinase Src (Homo sapiens) (UniProt P12931)", "sequence (P12931 2-536 limits assumed)": "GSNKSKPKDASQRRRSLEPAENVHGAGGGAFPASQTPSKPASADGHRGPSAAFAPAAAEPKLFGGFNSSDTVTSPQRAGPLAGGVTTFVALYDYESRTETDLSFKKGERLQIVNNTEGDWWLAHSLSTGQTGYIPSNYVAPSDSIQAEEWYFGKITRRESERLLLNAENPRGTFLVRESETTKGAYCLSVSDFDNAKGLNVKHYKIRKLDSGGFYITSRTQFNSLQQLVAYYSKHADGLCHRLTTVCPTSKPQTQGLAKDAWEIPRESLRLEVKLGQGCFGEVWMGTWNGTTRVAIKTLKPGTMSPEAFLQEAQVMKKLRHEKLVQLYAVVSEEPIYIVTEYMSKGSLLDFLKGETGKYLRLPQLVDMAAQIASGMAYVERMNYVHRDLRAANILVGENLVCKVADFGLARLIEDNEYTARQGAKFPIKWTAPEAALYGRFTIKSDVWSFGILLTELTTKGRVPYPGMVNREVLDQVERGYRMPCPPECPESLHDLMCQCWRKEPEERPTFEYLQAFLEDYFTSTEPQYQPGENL", "test": "Inhibition of human Src (1 to 530 residues) assessed as residual activity at 30 uM relative to control"}, "[10]": {"target": "Glycogen synthase kinase-3 beta (Homo sapiens) (UniProt P49841)", "sequence (P49841 whole entry, looked up)": "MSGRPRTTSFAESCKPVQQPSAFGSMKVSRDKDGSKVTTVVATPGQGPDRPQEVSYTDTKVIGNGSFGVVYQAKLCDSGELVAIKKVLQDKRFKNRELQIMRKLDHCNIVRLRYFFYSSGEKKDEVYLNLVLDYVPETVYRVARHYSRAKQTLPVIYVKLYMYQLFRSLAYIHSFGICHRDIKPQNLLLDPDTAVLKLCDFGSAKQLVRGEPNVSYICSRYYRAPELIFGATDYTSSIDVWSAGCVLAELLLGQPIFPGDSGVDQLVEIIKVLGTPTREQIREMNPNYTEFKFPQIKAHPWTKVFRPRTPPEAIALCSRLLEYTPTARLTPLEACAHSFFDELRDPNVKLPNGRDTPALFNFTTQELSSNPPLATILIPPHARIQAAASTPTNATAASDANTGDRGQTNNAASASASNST", "test": "Inhibition of human GSK3beta assessed as residual activity at 30 uM relative to control"}, "[11]": {"target": "Tyrosine-protein kinase SYK (Homo sapiens) (UniProt P43405)", "test": "Inhibition of human SYK assessed as residual activity at 30 uM relative to control"}, "[12]": {"test": "Toxicity in rat assessed as reduction in food intake at 10 mg/kg/day, po administered via gavage once a day pretreated for 9 weeks prior to co-cage and measured on day 74", "format": "organism-based", "design": "scale not given: the % may be the effect or the level left", "conditions": "in vivo, 1776 h, time 74 day"}, "[13]": {"test": "Volume of distribution at steady state in Sprague-Dawley rat at 1 mg/kg, iv measured for 24 hrs by LC-MS/MS analysis", "format": "ADME, organism-based", "conditions": "in vivo, read-out: Vdss"}, "[14]": {"target": "Tyrosine-protein kinase Blk (Homo sapiens) (UniProt P51451)", "sequence (P51451 2-505 limits assumed)": "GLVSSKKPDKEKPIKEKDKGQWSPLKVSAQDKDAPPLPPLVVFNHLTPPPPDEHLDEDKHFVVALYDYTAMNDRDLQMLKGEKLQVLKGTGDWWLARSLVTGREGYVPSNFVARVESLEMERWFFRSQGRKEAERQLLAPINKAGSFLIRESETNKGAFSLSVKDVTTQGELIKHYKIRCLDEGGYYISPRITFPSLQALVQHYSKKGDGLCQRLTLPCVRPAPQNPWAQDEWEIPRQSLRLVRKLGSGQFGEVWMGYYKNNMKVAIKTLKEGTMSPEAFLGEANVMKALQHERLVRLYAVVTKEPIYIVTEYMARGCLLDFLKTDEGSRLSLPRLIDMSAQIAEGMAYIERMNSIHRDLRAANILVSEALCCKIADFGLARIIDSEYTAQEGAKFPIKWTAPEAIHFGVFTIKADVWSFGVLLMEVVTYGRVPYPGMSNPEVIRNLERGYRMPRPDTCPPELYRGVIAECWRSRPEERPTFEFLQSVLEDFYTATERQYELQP", "test": "Inhibition of human BLK assessed as residual activity at 30 uM relative to control"}, "[15]": {"target": "Inhibitor of nuclear factor kappa-B kinase subunit beta (Homo sapiens) (UniProt O14920)", "test": "Inhibition of human IKKbeta assessed as residual activity at 30 uM relative to control"}, "[16]": {"target": "Serine/threonine-protein kinase 26 (Homo sapiens) (UniProt Q9P289)", "sequence (Q9P289 2-416 limits assumed)": "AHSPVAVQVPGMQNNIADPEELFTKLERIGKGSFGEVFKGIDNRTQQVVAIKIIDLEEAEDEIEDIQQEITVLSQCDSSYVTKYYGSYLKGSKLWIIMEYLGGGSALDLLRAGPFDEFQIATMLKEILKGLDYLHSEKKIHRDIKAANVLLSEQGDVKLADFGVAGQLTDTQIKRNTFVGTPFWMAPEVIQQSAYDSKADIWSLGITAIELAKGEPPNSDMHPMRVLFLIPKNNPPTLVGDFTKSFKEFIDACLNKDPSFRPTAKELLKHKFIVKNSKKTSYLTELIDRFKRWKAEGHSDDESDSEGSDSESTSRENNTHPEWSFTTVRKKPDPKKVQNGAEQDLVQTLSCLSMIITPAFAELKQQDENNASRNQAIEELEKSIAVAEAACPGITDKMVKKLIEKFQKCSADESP", "test": "Inhibition of human MST4 assessed as residual activity at 30 uM relative to control"}, "Rattus norvegicus [17]": {"tested_on": "Rattus norvegicus", "test": "Antiarthritic activity in adjuvant-induced arthritis rat model assessed as recovery of body weight at 1 to 30 mg/kg, po administered twice a day for 14 days starting from day 13 to 27 post immunization and measured every 3 days a week", "format": "functional, organism-based", "conditions": "dose 1-30 mg/kg, time 14.0 day"}, "Mus musculus": {"tested_on": "Mus musculus", "test": "Antiarthritic activity in collagen-induced rheumatoid arthritis DBA/1 mouse model assessed as reduction in clinical score at 15 mg/kg, po BID administered for 14 days starting from 7 days before immunization to 21 days after immunization and measured on day 41 post immunization (reference value: 5.75)", "format": "functional", "conditions": "time 14 day"}, "in vivo [18]": {"test": "in vivo", "conditions": "beagle, dog, po, 5 mg/kg", "remark": "listed apart in the source"}, "[19]": {"test": "Toxicity in rat assessed as reduction in food intake at 10 mg/kg/day, po administered via gavage once a day pretreated for 9 weeks prior to co-cage and measured on day 84", "format": "organism-based", "design": "scale not given: the % may be the effect or the level left", "conditions": "in vivo, 2016 h, time 84 day"}, "[20]": {"target": "Calcium/calmodulin-dependent protein kinase type II subunit alpha (Homo sapiens) (UniProt Q9UQM7)", "sequence (Q9UQM7 whole entry)": "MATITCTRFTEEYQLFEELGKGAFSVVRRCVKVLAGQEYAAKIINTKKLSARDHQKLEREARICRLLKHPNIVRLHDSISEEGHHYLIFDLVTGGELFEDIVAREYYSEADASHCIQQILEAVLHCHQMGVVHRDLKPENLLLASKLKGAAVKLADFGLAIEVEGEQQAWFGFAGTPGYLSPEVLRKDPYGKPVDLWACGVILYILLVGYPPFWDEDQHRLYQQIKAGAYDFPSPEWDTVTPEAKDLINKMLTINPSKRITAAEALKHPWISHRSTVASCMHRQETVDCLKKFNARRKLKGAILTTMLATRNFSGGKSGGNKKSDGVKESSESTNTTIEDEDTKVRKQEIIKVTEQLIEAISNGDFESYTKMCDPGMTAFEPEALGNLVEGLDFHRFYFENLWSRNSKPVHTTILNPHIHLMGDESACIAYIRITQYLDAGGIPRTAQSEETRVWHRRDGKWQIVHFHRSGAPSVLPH", "test": "Inhibition of human CAMKIIalpha assessed as residual activity at 30 uM relative to control"}, "[21]": {"target": "Tyrosine-protein kinase ITK/TSK (Homo sapiens) (UniProt Q08881)", "test": "Inhibition of human ITK assessed as residual activity at 30 uM relative to control"}, "Rattus norvegicus [22]": {"tested_on": "Rattus norvegicus", "test": "Antiarthritic activity in adjuvant-induced arthritis rat model assessed as reduction in paw volume at 1 mg/kg, po administered twice a day for 14 days starting from day 13 to 27 post immunization and measured every 3 days a week", "format": "functional", "conditions": "time 14 day"}}, "note": "Calls of active or inactive are those of the source. The calls are words filed in the database; no cut-off is given here.", "data": [{"smiles": "O=C(Nc1nc2cccc(C3CCC4(CC3)CN(C(=O)[C@@H]3CC3(F)F)C4)n2n1)C1CC1", "values": [{"measurement": "Activity", "setting": "[1]", "result": 102, "unit": "%"}, {"measurement": "Activity", "setting": "[2]", "result": 84, "unit": "%"}, {"measurement": "Activity", "setting": "[3]", "result": 129, "unit": "%"}, {"measurement": "bioavailability at 24 h", "setting": "in vivo [4]", "result": 106, "unit": "%"}, {"measurement": "Activity", "setting": "[5]", "result": 66, "unit": "%"}, {"measurement": "Activity", "setting": "[6]", "result": 85, "unit": "%"}, {"measurement": "Activity", "setting": "[7]", "result": 89, "unit": "%"}, {"measurement": "Activity", "setting": "[8]", "result": 104, "unit": "%"}, {"measurement": "Activity", "setting": "[9]", "result": 86, "unit": "%"}, {"measurement": "Activity", "setting": "[10]", "result": 93, "unit": "%"}, {"measurement": "Activity", "setting": "[11]", "result": 88, "unit": "%"}, {"measurement": "Activity", "setting": "[12]", "result": 6.1, "unit": "%"}, {"measurement": "Vd", "setting": "[13]", "result": 1.81, "unit": "L/kg"}, {"measurement": "Activity", "setting": "[14]", "result": 81, "unit": "%"}, {"measurement": "Activity", "setting": "[15]", "result": 97, "unit": "%"}, {"measurement": "Activity", "setting": "[16]", "result": 99, "unit": "%"}, {"measurement": "Activity", "setting": "Rattus norvegicus [17]", "result": "Active"}, {"measurement": "Activity", "setting": "Mus musculus", "result": 1.5}, {"measurement": "Cmax at 24 h", "setting": "in vivo [18]", "result": 2750, "unit": "ng/mL"}, {"measurement": "Activity", "setting": "[19]", "result": 7.8, "unit": "%"}, {"measurement": "Activity", "setting": "[20]", "result": 88, "unit": "%"}, {"measurement": "Activity", "setting": "[21]", "result": 87, "unit": "%"}, {"measurement": "Activity", "setting": "Rattus norvegicus [22]", "result": 1.91, "unit": "mL"}]}]}
